From publication PMC8752738, “A propolis-derived small molecule ameliorates metabolic syndrome in obese mice by targeting the CREB/CRTC2 transcriptional complex” (Nature Communications, 2022)
Where “and” joins values, the source holds several entries; their conditions need not be identical. Equal entries are not always repeated.

Tested on: tissue mRNA levels
Assay: Quantitative PCR of tissue gene expression in treated mice;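 on mRNA levels Retn: daily intraperitoneal dosing for 5 weeks versus vehicle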;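 on mRNA levels Srebf-1c: daily intraperitoneal dosing for 5 weeks versus vehicle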;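 on mRNA levels Srebf-2: daily intraperitoneal dosing for 5 weeks versus vehicle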;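 on mRNA levels Tnfaip2: daily intraperitoneal dosing for 5 weeks versus vehicle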
Type: in vivo, mouse
Parameters: key to mRNA levels Scap / mRNA levels Insig1 / mRNA levels Ldlr / mRNA levels Mttp / mRNA levels Atgl / mRNA levels Tnfaip2 / mRNA levels Rxra / mRNA levels Srebf1 / mRNA levels Ucp2: mRNA level normalized to ribosomal L32 mRNA (internal control)
Experimental: Total RNA from cells and tissues was extracted by Trizol (Invitrogen) and reverse-transcribed into cDNA using the prime script RT reagent kit with gDNA eraser (Takara). The mRNA levels were determined using the SYBR-green PCR kit (Takara) with ABIPRISM 7900HT Sequence detector (ABI) according to the manufacturer’s protocol. The quantitative qPCR primers used in this work are listed in Supplementary Table 1. Ribosomal L32 mRNA levels were used as an internal control.

[1] = Figure 6d, white fat (WF) tissue of DIO mice, individual animals
[2] = db/db mice, liver, individual mouse, relative to VEH
[3] = liver of DIO mice, individual animals, n=5, relative to VEH

Q: How did the “mRNA levels Retn” value [1] turn out when CC(C)=CCc1cc(C=CC(=O)O)cc(CC=C(C)C)c1O [APC, 3,5-diprenyl-4-hydroxycinnamic acid] was run?
A: 0.123 and 0.143 and 0.2381 and 0.235 and 0.5597 and 0.5846

Q: And the “mRNA levels Scd1” value [1]?
A: 0.2084 and 0.3568 and 0.6736 and 0.7934 and 0.506 and 0.7156

Q: And the “mRNA levels Srebf-1c” value [1]?
A: 0.5354 and 0.1144 and 0.4679 and 0.2361 and 0.4842 and 0.3947

Q: What about the “mRNA levels Srebf-2” value [1] of the same compound?
A: 0.5798 and 0.5629 and 0.8096 and 0.529 and 0.7852 and 0.6266

Q: And the “mRNA levels Tnfaip2” value [1]?
A: 1.35 and 1.386 and 0.7621 and 0.8823 and 0.8616 and 0.7122

Q: What about the “Mean Diff. (Veh. vs. treated; head of the quantity not shown, section just before Figure 7h)” value (WT mice, Met 200mg/kg or APC-20) of the same compound?
A: 0.5814

Q: And the “CREB targets in tissues: Brain-Creb, Mean of APC” value (brain, Creb mRNA, group mean)?
A: 1.036

Q: And the “CREB targets in tissues: Brain-Creb” value (brain, Creb mRNA, individual animals)?
A: 1.197 and 1.012 and 0.7996 and 1.136

Q: And the “CREB targets in tissues: Brain-Nr4a1, Mean of APC” value (brain, Nr4a1 mRNA, group mean)?
A: 1.211

Q: And the “CREB targets in tissues: Brain-Nr4a1” value (brain, Nr4a1 mRNA, individual animals)?
A: 1.274 and 1.137 and 0.9545 and 1.476

Q: What about the “G6pc mRNA levels in the liver of db/db, Mean of APC” value (db/db mice, liver, group mean) of the same compound?
A: 0.7471

Q: And the “Pck1 mRNA levels in the liver of db/db, Mean of APC” value (db/db mice, liver, group mean)?
A: 0.6226

Q: And the “Pgc1a mRNA levels in the liver of db/db, Mean of APC” value (db/db mice, liver, group mean)?
A: 0.7977

Q: What about the “Pgc1beta mRNA levels in the liver of db/db, Mean of APC” value (db/db mice, liver, group mean) of the same compound?
A: 0.5441

Q: And the “G6pc mRNA levels in the liver of db/db” value [2]?
A: 0.8066 and 0.775 and 0.6553 and 0.7287 and 0.77

Q: What about the “Pck1 mRNA levels in the liver of db/db” value [2] of the same compound?
A: 0.6945 and 0.6263 and 0.76 and 0.3641 and 0.668

Q: What about the “Pgc1a mRNA levels in the liver of db/db” value [2] of the same compound?
A: 0.6615 and 0.9739 and 0.731 and 0.852 and 0.77

Q: And the “Pgc1beta mRNA levels in the liver of db/db” value [2]?
A: 0.4871 and 0.4573 and 0.6546 and 0.4823 and 0.6391

Q: What about the “CREB targets in tissues: Intestine-Creb, Mean of APC” value (intestine, Creb mRNA, group mean) of the same compound?
A: 0.8467

Q: And the “CREB targets in tissues: Intestine-Creb” value (intestine, Creb mRNA, individual animals)?
A: 1.179 and 0.6319 and 0.7341 and 0.8415

Q: What about the “CREB targets in tissues: Intestine-Gcg, Mean of APC” value (intestine, Gcg mRNA, group mean) of the same compound?
A: 1.011

Q: And the “CREB targets in tissues: Intestine-Gcg” value (intestine, Gcg mRNA, individual animals)?
A: 1.309 and 1.259 and 0.7551 and 0.7184

Q: What about the “CREB targets in tissues: Intestine-Nr4a1, Mean of APC” value (intestine, Nr4a1 mRNA, group mean) of the same compound?
A: 0.8751

Q: What about the “CREB targets in tissues: Intestine-Nr4a1” value (intestine, Nr4a1 mRNA, individual animals) of the same compound?
A: 0.8692 and 0.9136 and 0.8672 and 0.8504

Q: And the “CREB targets in tissues: Kidney-Creb, Mean of APC” value (kidney, Creb mRNA, group mean)?
A: 1.013

Q: What about the “CREB targets in tissues: Kidney-Creb” value (kidney, Creb mRNA, individual animals) of the same compound?
A: 1.268 and 1.031 and 0.912 and 0.8402

Q: And the “CREB targets in tissues: Kidney-Nr4a1, Mean of APC” value (kidney, Nr4a1 mRNA, group mean)?
A: 1.291

Q: And the “CREB targets in tissues: Kidney-Nr4a1” value (kidney, Nr4a1 mRNA, individual animals)?
A: 1.347 and 1.276 and 1.454 and 1.087

Q: What about the “mRNA levels of nuclear receptor in the liver of DIO mice: Lxrα” value [3] of the same compound?
A: 0.586 and 0.8678 and 0.6768 and 0.6509 and 0.6469

Q: And the “mRNA levels of nuclear receptor in the liver of DIO mice: Pparα” value [3]?
A: 0.9724 and 0.9732 and 1.109 and 1.163 and 1.051

Q: And the “mRNA levels of nuclear receptor in the liver of DIO mice: Pparγ” value [3]?
A: 1.158 and 1.005 and 1.0158 and 1.1983 and 1.083

Q: What about the “mRNA levels of nuclear receptor in the liver of DIO mice: Rxrα” value [3] of the same compound?
A: 0.9006 and 1.063 and 0.8578 and 0.9925 and 1.111

Q: What about the “mRNA levels of nuclear receptor in the liver of DIO mice: Lxrα, group mean (Mean 1)” value (liver of DIO mice, mean of N=5) of the same compound?
A: 0.6857

Q: And the “mRNA levels of nuclear receptor in the liver of DIO mice: Pparα, group mean (Mean 1)” value (liver of DIO mice, mean of N=5)?
A: 1.054

Q: What about the “mRNA levels of nuclear receptor in the liver of DIO mice: Pparγ, group mean (Mean 1)” value (liver of DIO mice, mean of N=5) of the same compound?
A: 1.092

Q: And the “mRNA levels of nuclear receptor in the liver of DIO mice: Rxrα, group mean (Mean 1)” value (liver of DIO mice, mean of N=5)?
A: 0.9849

Q: What about the “CREB targets in tissues: Mus-Creb, Mean of APC” value (muscle, Creb mRNA, group mean) of the same compound?
A: 1.048

Q: What about the “CREB targets in tissues: Mus-Creb” value (muscle, Creb mRNA, individual animals) of the same compound?
A: 1.0591 (2×) and 0.9897 and 1.082

Q: What about the “CREB targets in tissues: Mus-Nr4a1, Mean of APC” value (muscle, Nr4a1 mRNA, group mean) of the same compound?
A: 1.244

Q: What about the “CREB targets in tissues: Mus-Nr4a1” value (muscle, Nr4a1 mRNA, individual animals) of the same compound?
A: 1.457 (2×) and 0.6913 and 1.369

Q: What about the “CREB targets in tissues: Mus-Pdk1, Mean of APC” value (muscle, Pdk1 mRNA, group mean) of the same compound?
A: 0.9489

Q: And the “CREB targets in tissues: Mus-Pdk1” value (muscle, Pdk1 mRNA, individual animals)?
A: 0.9576 (2×) and 0.8606 and 1.02

Q: What about the “liver mRNA levels of Srebp-1c and 2 in CRTC2 knockout mice” value (oral 20 mg/kg daily, 3 weeks) of the same compound?
A: did not further decrease

Q: What about the “CREB targets in tissues: Pancreac-C2cd4a, Mean of APC” value (pancreas, C2cd4a mRNA, group mean) of the same compound?
A: 0.9353

Q: What about the “CREB targets in tissues: Pancreac-C2cd4a” value (pancreas, C2cd4a mRNA, individual animals) of the same compound?
A: 1.193 and 0.8753 and 0.8055 and 0.8678

Q: And the “CREB targets in tissues: Pancreac-Creb, Mean of APC” value (pancreas, Creb mRNA, group mean)?
A: 1.238

Q: And the “CREB targets in tissues: Pancreac-Creb” value (pancreas, Creb mRNA, individual animals)?
A: 1.233 and 1.182 and 1.267 and 1.269

Q: What about the “CREB targets in tissues: Pancreac-Nr4a1, Mean of APC” value (pancreas, Nr4a1 mRNA, group mean) of the same compound?
A: 1.238

Q: And the “CREB targets in tissues: Pancreac-Nr4a1” value (pancreas, Nr4a1 mRNA, individual animals)?
A: 0.9381 and 1.521 and 1.263 and 1.23

Q: And the “CREB targets in tissues: Spleen-Creb, Mean of APC” value (spleen, Creb mRNA, group mean)?
A: 1.07

Q: What about the “CREB targets in tissues: Spleen-Creb” value (spleen, Creb mRNA, individual animals) of the same compound?
A: 1.294 and 1.069 and 0.8334 and 1.085

Q: What about the “CREB targets in tissues: Spleen-Nr4a1, Mean of APC” value (spleen, Nr4a1 mRNA, group mean) of the same compound?
A: 1.115

Q: And the “CREB targets in tissues: Spleen-Nr4a1” value (spleen, Nr4a1 mRNA, individual animals)?
A: 1.516 and 1.042 and 0.6673 and 1.233
